Measured values taken from patent publication US20240140991A1, “ANTIBIOTIC NATURAL PRODUCT ANALOGUES” (THE QUEEN'S UNIVERSITY OF BELFAST, priority 2021, published 2024).
In brackets after ≈: the same amount, converted by molar mass. Read-outs that look alike come from different tables or passages of the source. Positions of bridges follow the written chain, without caps; N, C: chain ends. Non-standard residues stand in square brackets, D forms with d. Residues, ends and D or L forms follow the SMILES beside them. ξ: configuration not given here. *: point of attachment. Octanoyl(7-Me) = CC(C)CCCCCC(=O)*; Hexanoyl(4ξ-Me) = CCC(C)CCC(=O)*; dOrn = NCCC[C@@H](N)C(=O)O; Orn = NCCC[C@H](N)C(=O)O; Dap = NC[C@H](N)C(=O)O

Legend:
HepG2 cells = experiment: Cytotoxicity MTT assay; settings: HepG2, 128 μg/mL, 24 h
Protocol: In addition to a single vehicle control, compounds (diluted from DMSO stock) were added to each well to obtain in a final 128 μg/mL concentration (max. final DMSO concentration 0.5%) for all compounds except for oritavancin which was administered at 50 μM. Incubation was done for 24 h at 37° C., 7% CO2. After the incubation, MTT was added to each well at a final concentration of 0.40 mg/mL. The plates were then incubated for 2 h at 37° C., 7% CO2. Medium was carefully removed via suction, and purple formazan crystals were resuspended in 100 μL DMSO. Absorbance was read at 570 nm using a Clariostar plate reader. The data was then analysed with GraphPad Prism software. Technical triplicates for each condition were used, along with biological duplicates.

[1] = system: Acinetobacter baumannii ATCC 17961; assay type: cell-based
Summary of the method: (§1)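 Broth microdilution in MHB per CLSI; inoculum 2×10^5 CFU mL^−1 from log-phase TSB cultures at OD600 0.5. Plates incubated 16 hours at 37° C with shaking at 220 rpm. MIC is the lowest concentration preventing visible growth.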

[2] = system: Escherichia coli ATCC 25922; assay type: cell-based
Summary of the method: as §1

[3] = system: Pseudomonas aeruginosa ATCC 27853; assay type: cell-based
Summary of the method: as §1

[4] = system: Staphylococcus aureus USA300; assay type: cell-based
Summary of the method: as §1

E. coli ATCC 25922 MCR-1 = assay type: cell-based, Escherichia coli; settings: E. coli ATCC 25922 MCR-1 (colistin resistant)
Protocol: (§2) Minimum inhibitory concentration (MIC) was determined by broth microdilution according to CLSI guidelines. Blood agar plates were inoculated with glycerol stocks of Escherichia coli ATCC 25922, E. coli ATCC 25922 MCR-1, E. coli MCR-1 (clinical isolate from Utrecht Medical Center, NL), E. coli EQAS MCR-2 (clinical isolate from Wageningen University and Research, NL), Kiebsielia pneumoniae ATCC 11228, K. pneumoniae ATCC 13883, K. pneumonia 2048 (clinical isolate from Vrije Universiteit Amsterdam Medical Center, NL), K. pneumonia JS-123 (clinical isolate from Utrecht Medical Center, NL), Acinetobacter baumannii ATCC 17961, A. baumannil ATCC 17978, A. baumannii 2018-006 (clinical isolate from Rijksinstituut voor Volksgezondheid en Milieu, NL), A. baumannii MDR (clinical isolate from Vrije Universiteit Amsterdam Medical Center, NL), Pseudomonas aeruginosa ATCC 27853, P. aeruginosa PAO1, P. aeruginosa NRZ-03961 (Reference strain from Das Nationale Referenzzentrum für gramnegative Krankenhauserreger, DE), P. aeruginosa M-120 (clinical isolate from Leiden University Medical Center, NL) and Staphylococcus aureus USA300 (clinical isolate from Texas Children's Hospitalm, USA). E. coli 25922 MCR1 was grown on LB agar supplemented with kanamycin. The inoculated agar plates were then incubated for 16 hours at 37° C. Individually grown colonies were subsequently used to inoculate 3 mL aliquots of TSB that were then incubated at 37° C. with shaking at 220 rpm. In parallel, the compounds to be assessed were serially diluted with Mueller-Hinton broth (MHB) in polypropylene 96-well plates (50 μL in each well). Once the OD600 of the bacterial suspensions reached 0.5, the bacteria were diluted with MHB (final concentration 2×10^5 CFU mL^−1) and added to the microplates containing the test compounds (50 μL to each well, final volume: 100 μL). The well-plates were sealed with an adhesive membrane and after 16 hours of incubation at 37° C. with shaking at 220 rpm the wells were visually inspected for bacterial growth. MIC values were defined as the lowest concentration of the compound that prevented visible growth of bacteria.
(§3) In the table above, “MCR” denotes that one of the MCR family of genes, which confers colistin resistance, is present in the bacterial strain. Thus, E. coli ATCC 25922 MCR-1, E. coli MCR-1 and E. coli EQAS MCR-2 are each colistin resistant. […] Therefore, laterocidamide may overcome some of the challenges faced due to antibiotic resistance.

E. coli EQAS MCR-2 = assay type: cell-based, Escherichia coli; settings: E. coli EQAS MCR-2 clinical isolate (colistin resistant)
Protocol: as §2, §3

E. coli MCR-1 = assay type: cell-based, Escherichia coli; settings: E. coli MCR-1 clinical isolate (colistin resistant)
Protocol: as §2, §3

K. pneumoniae 2048 = assay type: cell-based, Klebsiella pneumoniae
Protocol: as §2

K. pneumoniae ATCC 11228 = assay type: cell-based, Klebsiella pneumoniae
Protocol: as §2

K. pneumoniae ATCC 13883 = assay type: cell-based, Klebsiella pneumoniae
Protocol: as §2

K. pneumoniae JS-123 = assay type: cell-based, Klebsiella pneumoniae
Protocol: as §2

A. baumannii 2018-006 = assay type: cell-based, Acinetobacter baumannii
Protocol: as §2

A. baumannii ATCC 17978 = assay type: cell-based, Acinetobacter baumannii
Protocol: as §2

A. baumannii MDR = assay type: cell-based, Acinetobacter baumannii; settings: A. baumannii MDR clinical isolate
Protocol: as §2

P. aeruginosa M-120 = assay type: cell-based, Pseudomonas aeruginosa
Protocol: as §2

P. aeruginosa NRZ-03961 = assay type: cell-based, Pseudomonas aeruginosa
Protocol: as §2

P. aeruginosa PAO1 = assay type: cell-based, Pseudomonas aeruginosa
Protocol: as §2

Compound	cytotoxicity / cell viability (HepG2 cells)	Minimum inhibitory concentration (MIC) (E. coli ATCC 25922 MCR-1)	Minimum inhibitory concentration (MIC) (E. coli EQAS MCR-2)	Minimum inhibitory concentration (MIC) (E. coli MCR-1)	Minimum inhibitory concentration (MIC) (A. baumannii MDR)	Minimum inhibitory concentration (MIC) ([1]; ATCC 17961)	Minimum inhibitory concentration (MIC) ([2]; ATCC 25922)	Minimum inhibitory concentration (MIC) ([3]; ATCC 27853)	Minimum inhibitory concentration (MIC) ([4]; USA300)	Minimum inhibitory concentration (MIC) (K. pneumoniae 2048; 2048)	Minimum inhibitory concentration (MIC) (K. pneumoniae ATCC 11228; ATCC 11228)	Minimum inhibitory concentration (MIC) (K. pneumoniae ATCC 13883; ATCC 13883)	Minimum inhibitory concentration (MIC) (K. pneumoniae JS-123; JS-123)	Minimum inhibitory concentration (MIC) (A. baumannii 2018-006; 2018-006)	Minimum inhibitory concentration (MIC) (A. baumannii ATCC 17978; ATCC 17978)	Minimum inhibitory concentration (MIC) (P. aeruginosa M-120; M-120)	Minimum inhibitory concentration (MIC) (P. aeruginosa NRZ-03961; NRZ-03961)	Minimum inhibitory concentration (MIC) (P. aeruginosa PAO1; PAO1)	also measured
CCC(C)CCC(=O)N[C@H](CC(N)=O)C(=O)N[C@H](Cc1ccc(O)cc1)C(=O)N[C@H](Cc1c[nH]c2ccccc12)C(=O)N[C@H](CCCN)C(=O)N[C@@H](CCCN)C(=O)NCC(=O)N[C@H](CCCN)C(=O)N[C@@H](Cc1c[nH]c2ccccc12)C(=O)N[C@@H]1C(=O)N[C@@H]([C@@H](C)CC)C(=O)NCC(=O)N[C@@H](CO)C(=O)O[C@@H]1C (stereo partly drawn) [Brevicidine, brevicidine, reference compound] ({Hexanoyl(4ξ-Me)}-[dN][dY][dW][dOrn][Orn]G[dOrn]WTIGS; ester 9-C)	completely non-toxic																		
colistin [reference compound]		2 to 4 µg/mL	2 to 4 µg/mL	2 to 4 µg/mL	≤0.5 µg/mL														Minimum inhibitory concentration (MIC) ([1]; A. baumannii ATCC 17961): ≤0.5 µg/mL; Minimum inhibitory concentration (MIC) ([2]; E. coli ATCC 25922): 0.25 to 0.5 µg/mL; Minimum inhibitory concentration (MIC) ([3]; P. aeruginosa ATCC 27853): 1 µg/mL; Minimum inhibitory concentration (MIC) ([4]; S. aureus USA300 (Gram-positive)): >64 µg/mL; Minimum inhibitory concentration (MIC) (K. pneumoniae 2048; K. pneumoniae 2048 clinical isolate): 2 µg/mL; Minimum inhibitory concentration (MIC) (K. pneumoniae ATCC 11228; K. pneumoniae ATCC 11228): ≤0.5 µg/mL; Minimum inhibitory concentration (MIC) (K. pneumoniae ATCC 13883; K. pneumoniae ATCC 13883): 1 µg/mL; Minimum inhibitory concentration (MIC) (K. pneumoniae JS-123; K. pneumoniae JS-123 clinical isolate): ≤0.5 µg/mL; Minimum inhibitory concentration (MIC) (A. baumannii 2018-006; A. baumannii 2018-006 clinical isolate): ≤0.5 µg/mL; Minimum inhibitory concentration (MIC) (A. baumannii ATCC 17978; A. baumannii ATCC 17978): ≤0.5 µg/mL; Minimum inhibitory concentration (MIC) (P. aeruginosa M-120; P. aeruginosa M-120 clinical isolate): 1 µg/mL; Minimum inhibitory concentration (MIC) (P. aeruginosa NRZ-03961; P. aeruginosa NRZ-03961): <0.5 µg/mL; Minimum inhibitory concentration (MIC) (P. aeruginosa PAO1; P. aeruginosa PAO1): ≤0.5 µg/mL
CC[C@H](C)[C@@H]1NC(=O)[C@@H](NC(=O)[C@H](Cc2c[nH]c3ccccc23)NC(=O)[C@@H](CCCN)NC(=O)CNC(=O)[C@H](CCCN)NC(=O)[C@@H](CCCN)NC(=O)[C@@H](Cc2c[nH]c3ccccc23)NC(=O)[C@@H](Cc2ccc(O)cc2)NC(=O)[C@@H](CO)NC(=O)CCCCCC(C)C)[C@@H](C)OC(=O)CNC(=O)CNC(=O)[C@H](CC(N)=O)NC1=O [Laterocidine, laterocidine, reference compound] ({Octanoyl(7-Me)}-[dS][dY][dW][dOrn][Orn]G[dOrn]WTINGG; ester 9-C)	completely non-toxic	2 µg/mL (≈ 1.25 µM)	1 µg/mL (≈ 0.623 µM)	0.5 µg/mL (≈ 0.312 µM)	1 µg/mL (≈ 0.623 µM)														
CCC(C)CCC(=O)N[C@H](CC(N)=O)C(=O)N[C@H](Cc1ccc(O)cc1)C(=O)N[C@H](Cc1c[nH]c2ccccc12)C(=O)N[C@H](CCCN)C(=O)N[C@@H](CCCN)C(=O)NCC(=O)N[C@H](CCCN)C(=O)N[C@@H](Cc1c[nH]c2ccccc12)C(=O)N[C@H]1COC(=O)[C@H](CO)NC(=O)CNC(=O)[C@H]([C@@H](C)CC)NC1=O (single isomer, unassigned) [Ser9-Brevicidine]		4 µg/mL (≈ 2.66 µM)	4 to 8 µg/mL	2 µg/mL (≈ 1.33 µM)	1 to 2 µg/mL	0.5 to 1 µg/mL	4 µg/mL (≈ 2.66 µM)	1 µg/mL (≈ 0.664 µM)	>64 µg/mL	4 µg/mL (≈ 2.66 µM)	2 µg/mL (≈ 1.33 µM)	2 µg/mL (≈ 1.33 µM)	2 µg/mL (≈ 1.33 µM)	2 µg/mL (≈ 1.33 µM)	2 µg/mL (≈ 1.33 µM)	2 µg/mL (≈ 1.33 µM)	4 µg/mL (≈ 2.66 µM)	2 to 4 µg/mL	
CC[C@@H](C)[C@H]1NC(=O)[C@H](NC(=O)[C@@H](Cc2c[nH]c3ccccc23)NC(=O)[C@H](CCCN)NC(=O)CNC(=O)[C@@H](CCCN)NC(=O)[C@H](CCCN)NC(=O)[C@H](Cc2c[nH]c3ccccc23)NC(=O)[C@H](Cc2ccc(O)cc2)NC(=O)[C@H](CO)NC(=O)CCCCCC(C)C)[C@H](C)OC(=O)CNC(=O)CNC(=O)[C@@H](CC(N)=O)NC1=O [ent- Laterocidine] ({Octanoyl(7-Me)}-SYW[Orn][dOrn]G[Orn][dW][dT][dI][dN]GG; ester 9-C)		8 to 16 µg/mL	8 to 16 µg/mL	8 to 16 µg/mL	4 to 8 µg/mL														
CCC(C)CCC(=O)N[C@H](CO)C(=O)N[C@H](Cc1ccc(O)cc1)C(=O)N[C@H](Cc1c[nH]c2ccccc12)C(=O)N[C@H](CCCN)C(=O)N[C@@H](CCCN)C(=O)NCC(=O)N[C@H](CCCN)C(=O)N[C@@H](Cc1c[nH]c2ccccc12)C(=O)N[C@H]1CNC(=O)CNC(=O)[C@H](CO)NC(=O)CNC(=O)[C@H]([C@@H](C)CC)NC1=O (stereo partly drawn) [Dap9-Relacidamide A] ({Hexanoyl(4ξ-Me)}-[dS][dY][dW][dOrn][Orn]G[dOrn]W[Dap]IGSG; lactam 9-C)						1 to 2 µg/mL	2 µg/mL (≈ 1.3 µM)	0.5 to 1 µg/mL	>64 µg/mL	2 µg/mL (≈ 1.3 µM)	2 µg/mL (≈ 1.3 µM)	2 µg/mL (≈ 1.3 µM)	1 µg/mL (≈ 0.652 µM)	2 to 4 µg/mL	4 µg/mL (≈ 2.61 µM)	1 to 2 µg/mL	2 to 4 µg/mL	1 to 2 µg/mL	
